Measurements as given in patent US20250206738A1, “WRN INHIBITORS” (Nimbus Wadjet, Inc., priority 2023, published 2025).
Like-named read-outs stand apart in the source and are kept apart here.

Columns and labels:
[1] = system: p21 induction in HCT 116 cells; assay: p21 induction in cells (In-Cell Western, p21/GAPDH ratio); type: cell-based; settings: 24 h compound incubation, read-out: P21_EC50
In short: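 HCT 116 cells treated 24 h at 37° C with 11-point, 2-fold dilutions starting typically at 10 μM, in duplicate. Fixed cells immunostained for p21 and GAPDH; 800/700 nm ratio normalised between DMSO and reference WRN inhibitor controls as percent activation. EC50 from non-linear regression.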

[2] = biological target: T1, human Werner helicase (WRN, Uniprot Q14191, amino acids 517-1235 with L1074F point mutation; WRN-BV08) (Homo sapiens, UniProt Q14191, L1074F); assay: WRN (BV08) ADP-Glo assay; type: biochemical; settings: WRN-BV08 (aa 517-1235, L1074F); read-out: ADP-Glo_hWRN_IC50
T1 construct: Uniprot Q14191, amino acids 517-1235 with L1074F point mutation; 8xHis (C, cleaved yes); TEV cleavage site (ENLYFQG) (C, cleaved yes); made in house; host or cells: Sf9 insect cells (baculovirus, pFastBac)
In short: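 WRN 517-1235 (L1074F, untagged, Sf9-expressed), 0.15 nM, preincubated with compound 15 min at 25 °C, then 60 min with […] and 0.1 nM DNA duplex in Bicine pH 7.5, 1 mM MgCl2, 1% DMSO. ADP-Glo luminescence; % inhibition vs NSC-617145 control, four-parameter IC50 fit.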

T1 sequence (Q14191 with tags, fused parts or gaps L1074F): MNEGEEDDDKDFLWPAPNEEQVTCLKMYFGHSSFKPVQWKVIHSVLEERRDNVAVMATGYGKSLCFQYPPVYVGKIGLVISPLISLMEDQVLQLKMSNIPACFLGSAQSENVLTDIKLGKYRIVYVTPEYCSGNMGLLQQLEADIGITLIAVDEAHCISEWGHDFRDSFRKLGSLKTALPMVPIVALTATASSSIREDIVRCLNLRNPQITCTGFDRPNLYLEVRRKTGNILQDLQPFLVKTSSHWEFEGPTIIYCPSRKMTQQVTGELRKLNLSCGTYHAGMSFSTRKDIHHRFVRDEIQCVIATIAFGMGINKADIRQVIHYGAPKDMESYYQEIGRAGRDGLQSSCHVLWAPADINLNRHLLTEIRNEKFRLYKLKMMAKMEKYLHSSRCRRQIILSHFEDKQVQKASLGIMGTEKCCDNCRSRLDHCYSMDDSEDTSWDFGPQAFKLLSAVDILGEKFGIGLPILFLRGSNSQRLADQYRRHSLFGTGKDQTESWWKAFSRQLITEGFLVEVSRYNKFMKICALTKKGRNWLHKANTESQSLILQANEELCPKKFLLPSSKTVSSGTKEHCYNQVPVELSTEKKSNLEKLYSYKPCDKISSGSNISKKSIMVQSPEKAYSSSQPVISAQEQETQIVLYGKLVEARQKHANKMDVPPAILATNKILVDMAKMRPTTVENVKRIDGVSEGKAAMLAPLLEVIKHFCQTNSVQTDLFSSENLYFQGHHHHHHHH

CCc1c(N2CCN(C(=O)c3c(OC)ncc(C)c3O)CC2)c(=O)n2nc(-c3ccnc(C)c3)nc2n1CC(=O)NC12CC(C(C)C)(C1)C2 [I-217, 2-(5-ethyl-6-(4-(4-hydroxy-2-methoxy-5-methylnicotinoyl)piperazin-1-yl)-2-(2-methylpyridin-4-yl)-7-oxo-[1,2,4]triazolo[1,5-a]pyrimidin-4(7H)-yl)-N-(3-isopropylbicyclo[1.1.1]pentan-1-yl)acetamide]
EC50 ([1]; Homo sapiens, HCT-116, 24 h): ≤ 500 nM
IC50 [2]: 5 to 50 nM

CCc1c(N2CCN(C(=O)c3c(O)ccc4ncoc34)CC2)c(=O)n2ncnc2n1CC(=O)NC12CC(C3CCC3)(C1)C2 [I-243, N-(3-cyclobutylbicyclo[1.1.1]pentan-1-yl)-2-(5-ethyl-6-(4-(6-hydroxybenzo[d]oxazole-7-carbonyl)piperazin-1-yl)-7-oxo-[1,2,4]triazolo[1,5-a]pyrimidin-4(7H)-yl)acetamide]
EC50 ([1]; Homo sapiens, HCT-116, 24 h): > 5000 nM
IC50 [2]: 100 to 500 nM

CCc1c(N2CCN(C(=O)c3c(O)ccc4ncoc34)CC2)c(=O)n2nc(-c3ccnc(OC)c3)nc2n1CC(=O)NC12CC(C(F)(F)C(F)(F)F)(C1)C2 [I-38, 2-(5-ethyl-6-(4-(6-hydroxybenzo[d]oxazole-7-carbonyl)piperazin-1-yl)-2-(2-methoxypyridin-4-yl)-7-oxo-[1,2,4]triazolo[1,5-a]pyrimidin-4(7H)-yl)-N-(3-(perfluoroethyl)bicyclo[1.1.1]pentan-1-yl)acetamide]
EC50 ([1]; Homo sapiens, HCT-116, 24 h): ≤ 500 nM
IC50 [2]: 5 to 50 nM

CCc1c(N2CCN(C(=O)c3cccc(N4CCN(C)CC4)c3)[C@H]3CC[C@@H]32)c(=O)c2nn(C3=CCOCC3)nc2n1CC(=O)NC12CC(C(C)C)(C1)C2 [I-201, 2-(2-(3,6-dihydro-2H-pyran-4-yl)-5-ethyl-6-((1S,6S)-5-(3-(4-methylpiperazin-1-yl)benzoyl)-2,5-diazabicyclo[4.2.0]octan-2-yl)-7-oxo-2,7-dihydro-4H-[1,2,3]triazolo[4,5-b]pyridin-4-yl)-N-(3-isopropylbicyclo[1.1.1]pentan-1-yl)acetamide]
EC50 ([1]; Homo sapiens, HCT-116, 24 h): 500 to 2000 nM
IC50 [2]: ≤ 5 nM

CCc1c(N2CCN(C(=O)c3c(OC)cccc3B(O)O)[C@H]3CC[C@@H]32)c(=O)c2nn(C3=CCOCC3)nc2n1CC(=O)NC12CC(C(C)C)(C1)C2 [I-204, (2-((1S,6S)-5-(2-(3,6-dihydro-2H-pyran-4-yl)-5-ethyl-4-(2-((3-isopropylbicyclo[1.1.1]pentan-1-yl)amino)-2-oxoethyl)-7-oxo-4,7-dihydro-2H-[1,2,3]triazolo[4,5-b]pyridin-6-yl)-2,5-diazabicyclo[4.2.0]octane-2-carbonyl)-3-methoxyphenyl)boronic acid]
EC50 ([1]; Homo sapiens, HCT-116, 24 h): ≤ 500 nM
IC50 [2]: 5 to 50 nM

CCc1c(N2CCN(C(=O)c3ncnc(C)c3O)CC2)c(=O)c2nc3cc(C)sc3nc2n1CC(=O)NC12CC(C(F)(F)F)(C1)C2 [I-3, 2-(7-ethyl-6-(4-(5-hydroxy-6-methylpyrimidine-4-carbonyl)piperazin-1-yl)-2-methyl-5-oxopyrido[2,3-b]thieno[3,2-e]pyrazin-8(5H)-yl)-N-(3-(trifluoromethyl)bicyclo[1.1.1]pentan-1-yl)acetamide]
EC50 ([1]; Homo sapiens, HCT-116, 24 h): > 5000 nM
IC50 [2]: 5 to 50 nM

CCc1c(N2CCN(C(=O)c3cnn(C)c3)CC2)c(=O)n2nc(C3=CCOCC3)nc2n1CC(=O)NC1CC2(C1)CC2F (stereo not drawn) [I-249, 2-(2-(3,6-dihydro-2H-pyran-4-yl)-5-ethyl-6-(4-(1-methyl-1H-pyrazole-4-carbonyl)piperazin-1-yl)-7-oxo-[1,2,4]triazolo[1,5-a]pyrimidin-4(7H)-yl)-N-(1-fluorospiro[2.3]hexan-5-yl)acetamide]
EC50 ([1]; Homo sapiens, HCT-116, 24 h): > 5000 nM
IC50 [2]: 100 to 500 nM

CCc1c(C2=CCN(C(=O)c3ncnc(C)c3O)CC2C)c(=O)c2nn(-c3ccnc(OC)c3)nc2n1CC(=O)NC12CC(C(C)C)(C1)C2 (single isomer, unassigned) [I-98]
EC50 [1]: 500 to 2000 nM
IC50 [2]: 5 to 50 nM

CCc1c(N2CCN(C(=O)c3ncnc(C)c3O)[C@H]3CC[C@@H]32)c(=O)c2nc(N(C)C)cnc2n1CC(=O)NC12CC(OC(F)(F)F)(C1)C2 [I-237, 2-(2-(dimethylamino)-6-ethyl-7-((1S,6S)-5-(5-hydroxy-6-methylpyrimidine-4-carbonyl)-2,5-diazabicyclo[4.2.0]octan-2-yl)-8-oxopyrido[2,3-b]pyrazin-5(8H)-yl)-N-(3-(trifluoromethoxy)bicyclo[1.1.1]pentan-1-yl)acetamide]
EC50 ([1]; Homo sapiens, HCT-116, 24 h): 2000 to 5000 nM
IC50 [2]: 5 to 50 nM

CCc1c(N2CCN(C(=O)c3cnn(C)c3)CC2)c(=O)n2nc(-c3ccnc(OC)c3)nc2n1CC(=O)NC1(C(O)c2ccccc2)CC1 (stereo not drawn) [I-250, 2-(5-ethyl-2-(2-methoxypyridin-4-yl)-6-(4-(1-methyl-1H-pyrazole-4-carbonyl)piperazin-1-yl)-7-oxo-[1,2,4]triazolo[1,5-a]pyrimidin-4(7H)-yl)-N-(1-(hydroxy(phenyl)methyl)cyclopropyl)acetamide]
EC50 ([1]; Homo sapiens, HCT-116, 24 h): > 5000 nM
IC50 [2]: 100 to 500 nM

CCc1c(N2CCN(C(=O)c3ncnc(C)c3O)CC2)c(=O)n2nc(-c3ccnc(OC)c3)nc2n1CC(=O)NC12CC(C(F)(F)F)(C1)C2 [I-4, 2-(5-ethyl-6-(4-(5-hydroxy-6-methylpyrimidine-4-carbonyl)piperazin-1-yl)-2-(2-methoxypyridin-4-yl)-7-oxo-[1,2,4]triazolo[1,5-a]pyrimidin-4(7H)-yl)-N-(3-(trifluoromethyl)bicyclo[1.1.1]pentan-1-yl)acetamide]
EC50 ([1]; Homo sapiens, HCT-116, 24 h): 2000 to 5000 nM
IC50 [2]: 5 to 50 nM

CCc1c(N2CCN(C(=O)c3c(OC)ncc(C)c3O)CC2)c(=O)n2nc(C3=CCOCC3)nc2n1CC(=O)NC12CC(C(F)(F)F)(C1)C2 [I-236, 2-(2-(3,6-dihydro-2H-pyran-4-yl)-5-ethyl-6-(4-(4-hydroxy-2-methoxy-5-methylnicotinoyl)piperazin-1-yl)-7-oxo-[1,2,4]triazolo[1,5-a]pyrimidin-4(7H)-yl)-N-(3-(trifluoromethyl)bicyclo[1.1.1]pentan-1-yl)acetamide]
EC50 ([1]; Homo sapiens, HCT-116, 24 h): 2000 to 5000 nM
IC50 [2]: 5 to 50 nM

CCc1c(N2CCN(C(=O)c3c(O)ccc4ncoc34)CC2)c(=O)n2nc(C3=CCOCC3)nc2n1CC(=O)NC12CC(C3CC3)(C1)C2 [I-29, N-(3-cyclopropylbicyclo[1.1.1]pentan-1-yl)-2-(2-(3,6-dihydro-2H-pyran-4-yl)-5-ethyl-6-(4-(6-hydroxybenzo[d]oxazole-7-carbonyl)piperazin-1-yl)-7-oxo-[1,2,4]triazolo[1,5-a]pyrimidin-4(7H)-yl)acetamide]
EC50 ([1]; Homo sapiens, HCT-116, 24 h): ≤ 500 nM
IC50 [2]: 5 to 50 nM

CCc1c(N2CCN(C(=O)c3ncnc(C)c3O)[C@H]3CC[C@@H]32)c(=O)c2cn(-c3ccnc(OC)c3)nc2n1CC(=O)NC12CC(C3CC3)(C1)C2 [I-212, N-(3-cyclopropylbicyclo[1.1.1]pentan-1-yl)-2-(6-ethyl-5-((1S,6S)-5-(5-hydroxy-6-methylpyrimidine-4-carbonyl)-2,5-diazabicyclo[4.2.0]octan-2-yl)-2-(2-methoxypyridin-4-yl)-4-oxo-2,4-dihydro-7H-pyrazolo[3,4-b]pyridin-7-yl)acetamide]
EC50 ([1]; Homo sapiens, HCT-116, 24 h): ≤ 500 nM
IC50 [2]: 5 to 50 nM

CCc1c(N2CCN(C(=O)c3ncccc3C(=O)O)CC2)c(=O)c2nn(-c3ccnc(OC)c3)nc2n1CC(=O)NC12CC(C3CC3)(C1)C2 [I-216, 2-(4-(4-(2-((3-cyclopropylbicyclo[1.1.1]pentan-1-yl)amino)-2-oxoethyl)-5-ethyl-2-(2-methoxypyridin-4-yl)-7-oxo-4,7-dihydro-2H-[1,2,3]triazolo[4,5-b]pyridin-6-yl)piperazine-1-carbonyl)nicotinic acid]
EC50 ([1]; Homo sapiens, HCT-116, 24 h): > 5000 nM
IC50 [2]: 5 to 50 nM
